Laboratory results reported in ChEMBL document CHEMBL1156181, “B-Raf kinase inhibitors: hit enrichment through scaffold hopping” (Bioorg Med Chem Lett, 2010).

Experiments:
[1] = target: Serine/threonine-protein kinase B-raf (Homo sapiens, UniProt P15056); assay: Inhibition of B-Raf
[2] = target: T1, Inhibitor of nuclear factor kappa-B kinase subunit beta (Homo sapiens, UniProt O14920); assay: Inhibition of IKK2
T1 sequence (O14920 whole entry): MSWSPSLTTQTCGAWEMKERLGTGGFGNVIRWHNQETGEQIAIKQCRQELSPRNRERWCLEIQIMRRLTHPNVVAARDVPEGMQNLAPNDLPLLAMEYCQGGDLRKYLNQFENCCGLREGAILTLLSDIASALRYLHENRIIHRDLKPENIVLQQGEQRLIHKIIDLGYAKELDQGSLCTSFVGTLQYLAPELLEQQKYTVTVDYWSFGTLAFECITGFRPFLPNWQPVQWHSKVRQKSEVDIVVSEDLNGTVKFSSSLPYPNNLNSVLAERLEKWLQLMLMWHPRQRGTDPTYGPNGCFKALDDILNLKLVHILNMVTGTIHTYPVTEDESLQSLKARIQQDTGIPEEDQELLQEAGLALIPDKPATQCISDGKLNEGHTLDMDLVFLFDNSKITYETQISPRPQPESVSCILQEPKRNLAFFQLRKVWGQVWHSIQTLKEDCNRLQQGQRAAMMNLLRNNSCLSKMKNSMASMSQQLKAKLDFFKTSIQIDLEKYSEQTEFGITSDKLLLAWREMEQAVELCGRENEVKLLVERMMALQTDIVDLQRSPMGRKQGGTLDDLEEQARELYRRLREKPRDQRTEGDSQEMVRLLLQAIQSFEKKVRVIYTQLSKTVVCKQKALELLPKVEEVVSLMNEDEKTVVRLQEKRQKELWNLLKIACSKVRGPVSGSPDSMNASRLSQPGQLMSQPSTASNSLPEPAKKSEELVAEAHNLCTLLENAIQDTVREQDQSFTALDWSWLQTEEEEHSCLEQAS

[3] = target: RAC-alpha serine/threonine-protein kinase (Homo sapiens, UniProt P31749); assay: Inhibition of AKT
[4] = Growth inhibition of human WM266.4 cells; assay type: functional, cell-based; conditions: WM 266-4
Caco-2 = assay: Growth inhibition of human Caco-2 cells; assay type: functional, cell-based
A-375 = assay: Growth inhibition of human A375 cells; assay type: functional, cell-based
[5] = target: Proto-oncogene tyrosine-protein kinase Src (Homo sapiens, UniProt P12931); assay: Inhibition of SRC
[6] = target: Serine/threonine-protein kinase mTOR (Homo sapiens, UniProt P42345); assay: Inhibition of mTOR
[7] = target: Protein kinase C theta type (Homo sapiens, UniProt Q04759); assay: Inhibition of PKCtheta
HT-29 = assay: Growth inhibition of human HT-29 cells; assay type: functional, cell-based
[8] = target: Tyrosine-protein kinase Lyn (Homo sapiens, UniProt P07948); assay: Inhibition of LYN
[9] = target: Tyrosine-protein kinase BTK (Homo sapiens, UniProt Q06187); assay: Inhibition of BTK
LoVo = assay: Growth inhibition of human LoVo cells; assay type: functional, cell-based
[10] = target: T2, Tyrosine-protein kinase ITK/TSK (Homo sapiens, UniProt Q08881); assay: Inhibition of ITK
T2 sequence (Q08881 whole entry): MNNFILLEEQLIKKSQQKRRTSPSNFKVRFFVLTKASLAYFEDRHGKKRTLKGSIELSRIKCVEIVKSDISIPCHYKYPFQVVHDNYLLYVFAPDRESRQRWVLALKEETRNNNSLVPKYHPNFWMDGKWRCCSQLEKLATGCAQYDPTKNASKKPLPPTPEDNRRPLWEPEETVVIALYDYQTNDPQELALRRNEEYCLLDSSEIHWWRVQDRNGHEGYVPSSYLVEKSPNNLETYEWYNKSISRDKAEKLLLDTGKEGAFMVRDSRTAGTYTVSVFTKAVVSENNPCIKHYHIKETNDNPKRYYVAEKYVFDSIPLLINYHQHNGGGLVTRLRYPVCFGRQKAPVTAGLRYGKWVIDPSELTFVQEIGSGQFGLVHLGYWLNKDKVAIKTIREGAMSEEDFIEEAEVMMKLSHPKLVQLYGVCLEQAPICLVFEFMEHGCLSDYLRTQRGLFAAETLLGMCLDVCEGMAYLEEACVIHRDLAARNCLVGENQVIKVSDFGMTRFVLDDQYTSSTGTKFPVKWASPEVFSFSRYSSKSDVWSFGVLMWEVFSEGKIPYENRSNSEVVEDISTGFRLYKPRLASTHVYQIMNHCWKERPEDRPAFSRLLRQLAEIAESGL

[11] = target: Cyclin-dependent kinase 4 (Homo sapiens, UniProt P11802); assay: Inhibition of CDK4
[12] = target: Phosphatidylinositol 4,5-bisphosphate 3-kinase catalytic subunit alpha isoform (Homo sapiens, UniProt P42336); assay: Inhibition of PI3Kalpha
Chain of Phosphatidylinositol 4,5-bisphosphate 3-kinase catalytic subunit alpha isoform (P42336 whole entry, canonical isoform): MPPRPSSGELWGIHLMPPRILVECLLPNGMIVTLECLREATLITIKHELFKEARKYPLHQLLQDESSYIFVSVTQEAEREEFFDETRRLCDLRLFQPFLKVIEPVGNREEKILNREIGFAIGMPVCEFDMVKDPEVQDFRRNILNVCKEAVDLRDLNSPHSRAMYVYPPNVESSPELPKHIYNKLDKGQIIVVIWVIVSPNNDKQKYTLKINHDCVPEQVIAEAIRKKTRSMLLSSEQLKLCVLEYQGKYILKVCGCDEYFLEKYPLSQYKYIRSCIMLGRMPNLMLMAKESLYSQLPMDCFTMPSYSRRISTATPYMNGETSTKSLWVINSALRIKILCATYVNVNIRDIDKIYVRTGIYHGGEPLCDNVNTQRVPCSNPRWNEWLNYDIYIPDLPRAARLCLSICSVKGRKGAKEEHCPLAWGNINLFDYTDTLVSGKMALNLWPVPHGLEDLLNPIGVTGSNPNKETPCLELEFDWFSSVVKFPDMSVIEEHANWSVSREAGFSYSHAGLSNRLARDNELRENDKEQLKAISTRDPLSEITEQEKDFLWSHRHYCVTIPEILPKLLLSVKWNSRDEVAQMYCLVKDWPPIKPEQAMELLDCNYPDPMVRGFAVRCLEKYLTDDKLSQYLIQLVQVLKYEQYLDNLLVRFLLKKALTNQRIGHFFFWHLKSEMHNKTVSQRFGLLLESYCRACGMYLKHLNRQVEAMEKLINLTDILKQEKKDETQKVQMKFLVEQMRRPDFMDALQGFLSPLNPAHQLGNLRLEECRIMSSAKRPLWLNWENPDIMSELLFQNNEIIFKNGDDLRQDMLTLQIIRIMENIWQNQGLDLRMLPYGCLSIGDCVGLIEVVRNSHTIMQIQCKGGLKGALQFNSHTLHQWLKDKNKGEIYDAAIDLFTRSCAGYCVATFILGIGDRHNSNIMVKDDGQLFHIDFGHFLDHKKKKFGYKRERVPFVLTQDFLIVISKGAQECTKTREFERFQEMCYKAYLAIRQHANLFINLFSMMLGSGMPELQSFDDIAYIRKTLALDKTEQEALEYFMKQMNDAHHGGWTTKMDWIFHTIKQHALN

Chain of Serine/threonine-protein kinase B-raf (P15056 whole entry): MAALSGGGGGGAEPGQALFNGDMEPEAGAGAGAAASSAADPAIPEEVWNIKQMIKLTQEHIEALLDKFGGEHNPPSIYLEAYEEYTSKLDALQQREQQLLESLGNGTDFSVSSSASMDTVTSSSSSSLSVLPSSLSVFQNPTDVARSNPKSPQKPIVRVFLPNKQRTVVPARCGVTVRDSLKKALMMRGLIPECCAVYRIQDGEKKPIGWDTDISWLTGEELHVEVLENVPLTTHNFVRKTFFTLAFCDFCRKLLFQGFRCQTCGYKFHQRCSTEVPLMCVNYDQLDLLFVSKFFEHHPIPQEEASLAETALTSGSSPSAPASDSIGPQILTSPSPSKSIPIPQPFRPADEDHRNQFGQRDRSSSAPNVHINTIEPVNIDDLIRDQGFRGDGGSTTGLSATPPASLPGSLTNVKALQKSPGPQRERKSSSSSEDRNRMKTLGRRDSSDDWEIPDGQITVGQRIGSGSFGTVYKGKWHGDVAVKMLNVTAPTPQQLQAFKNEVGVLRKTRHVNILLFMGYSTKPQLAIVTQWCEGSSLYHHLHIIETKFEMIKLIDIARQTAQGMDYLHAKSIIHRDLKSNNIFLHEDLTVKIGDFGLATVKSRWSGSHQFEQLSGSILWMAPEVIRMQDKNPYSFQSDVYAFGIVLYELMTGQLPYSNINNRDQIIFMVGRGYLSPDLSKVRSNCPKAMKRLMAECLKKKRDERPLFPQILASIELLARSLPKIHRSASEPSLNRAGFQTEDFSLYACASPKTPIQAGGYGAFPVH
Chain of RAC-alpha serine/threonine-protein kinase (P31749 whole entry): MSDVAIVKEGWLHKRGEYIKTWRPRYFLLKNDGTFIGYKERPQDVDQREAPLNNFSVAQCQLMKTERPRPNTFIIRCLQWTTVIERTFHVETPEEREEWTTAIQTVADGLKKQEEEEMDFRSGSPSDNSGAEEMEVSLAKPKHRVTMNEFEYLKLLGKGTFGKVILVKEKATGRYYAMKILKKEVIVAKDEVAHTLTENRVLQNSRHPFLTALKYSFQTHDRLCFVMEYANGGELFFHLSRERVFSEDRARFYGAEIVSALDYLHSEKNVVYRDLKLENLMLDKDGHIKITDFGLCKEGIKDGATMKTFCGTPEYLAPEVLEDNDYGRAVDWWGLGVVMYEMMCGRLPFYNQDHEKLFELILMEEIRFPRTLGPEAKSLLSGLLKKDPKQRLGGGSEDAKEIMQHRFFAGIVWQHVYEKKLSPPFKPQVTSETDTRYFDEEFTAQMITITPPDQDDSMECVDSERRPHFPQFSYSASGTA
Chain of Tyrosine-protein kinase Lyn (P07948 whole entry): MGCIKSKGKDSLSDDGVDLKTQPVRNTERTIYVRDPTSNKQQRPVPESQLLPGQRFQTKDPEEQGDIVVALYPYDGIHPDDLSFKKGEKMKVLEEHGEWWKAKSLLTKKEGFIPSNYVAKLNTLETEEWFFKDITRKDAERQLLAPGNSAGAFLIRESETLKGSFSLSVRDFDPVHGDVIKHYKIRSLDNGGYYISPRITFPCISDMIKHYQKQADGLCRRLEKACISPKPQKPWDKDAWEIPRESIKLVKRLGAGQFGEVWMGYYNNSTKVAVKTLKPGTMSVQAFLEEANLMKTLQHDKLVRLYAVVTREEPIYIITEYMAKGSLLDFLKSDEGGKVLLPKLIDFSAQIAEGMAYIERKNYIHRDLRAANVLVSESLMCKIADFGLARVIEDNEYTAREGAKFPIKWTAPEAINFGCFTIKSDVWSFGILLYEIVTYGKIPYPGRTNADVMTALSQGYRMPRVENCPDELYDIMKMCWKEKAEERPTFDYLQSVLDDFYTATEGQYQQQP
Chain of Cyclin-dependent kinase 4 (P11802 whole entry, canonical isoform): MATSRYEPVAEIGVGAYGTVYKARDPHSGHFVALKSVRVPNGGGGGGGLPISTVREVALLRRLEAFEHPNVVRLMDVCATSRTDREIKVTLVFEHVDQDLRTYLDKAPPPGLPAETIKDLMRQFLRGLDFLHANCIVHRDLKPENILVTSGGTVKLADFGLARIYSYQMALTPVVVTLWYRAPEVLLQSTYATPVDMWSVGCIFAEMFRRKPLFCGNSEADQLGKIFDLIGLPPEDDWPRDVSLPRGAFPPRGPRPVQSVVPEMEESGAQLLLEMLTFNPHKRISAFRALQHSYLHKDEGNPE
Chain of Proto-oncogene tyrosine-protein kinase Src (P12931 2-536 limits assumed): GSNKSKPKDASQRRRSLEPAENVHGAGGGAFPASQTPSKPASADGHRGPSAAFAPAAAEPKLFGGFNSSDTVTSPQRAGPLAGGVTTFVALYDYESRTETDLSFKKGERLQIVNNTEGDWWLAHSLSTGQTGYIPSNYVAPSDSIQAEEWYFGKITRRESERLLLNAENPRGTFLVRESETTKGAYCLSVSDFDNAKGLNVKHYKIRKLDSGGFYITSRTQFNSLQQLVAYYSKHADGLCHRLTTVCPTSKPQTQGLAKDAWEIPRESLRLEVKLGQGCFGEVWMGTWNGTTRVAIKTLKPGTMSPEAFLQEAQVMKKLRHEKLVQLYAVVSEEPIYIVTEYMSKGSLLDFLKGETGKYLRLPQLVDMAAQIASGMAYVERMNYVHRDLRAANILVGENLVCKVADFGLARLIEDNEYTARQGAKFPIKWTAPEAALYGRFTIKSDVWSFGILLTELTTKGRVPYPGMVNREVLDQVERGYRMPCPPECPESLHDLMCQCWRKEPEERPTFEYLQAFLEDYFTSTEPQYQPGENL
Chain of Tyrosine-protein kinase BTK (Q06187 whole entry): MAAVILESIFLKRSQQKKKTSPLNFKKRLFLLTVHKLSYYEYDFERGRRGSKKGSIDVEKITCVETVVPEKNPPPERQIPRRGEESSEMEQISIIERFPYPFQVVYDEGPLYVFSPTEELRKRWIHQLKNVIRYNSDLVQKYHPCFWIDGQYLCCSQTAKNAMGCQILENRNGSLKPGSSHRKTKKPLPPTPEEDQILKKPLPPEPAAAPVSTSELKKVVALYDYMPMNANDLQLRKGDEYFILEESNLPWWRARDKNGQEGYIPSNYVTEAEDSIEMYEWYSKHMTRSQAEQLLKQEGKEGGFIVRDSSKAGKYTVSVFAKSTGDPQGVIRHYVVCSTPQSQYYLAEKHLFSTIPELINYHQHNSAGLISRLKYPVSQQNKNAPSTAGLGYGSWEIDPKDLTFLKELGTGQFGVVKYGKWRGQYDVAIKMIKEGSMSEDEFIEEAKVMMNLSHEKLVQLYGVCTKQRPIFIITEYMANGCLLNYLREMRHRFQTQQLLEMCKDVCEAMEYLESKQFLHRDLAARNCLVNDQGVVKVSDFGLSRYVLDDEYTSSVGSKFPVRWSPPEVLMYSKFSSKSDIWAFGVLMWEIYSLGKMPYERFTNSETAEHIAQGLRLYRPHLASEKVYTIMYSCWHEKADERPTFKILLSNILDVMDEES
Chain of Protein kinase C theta type (Q04759 whole entry): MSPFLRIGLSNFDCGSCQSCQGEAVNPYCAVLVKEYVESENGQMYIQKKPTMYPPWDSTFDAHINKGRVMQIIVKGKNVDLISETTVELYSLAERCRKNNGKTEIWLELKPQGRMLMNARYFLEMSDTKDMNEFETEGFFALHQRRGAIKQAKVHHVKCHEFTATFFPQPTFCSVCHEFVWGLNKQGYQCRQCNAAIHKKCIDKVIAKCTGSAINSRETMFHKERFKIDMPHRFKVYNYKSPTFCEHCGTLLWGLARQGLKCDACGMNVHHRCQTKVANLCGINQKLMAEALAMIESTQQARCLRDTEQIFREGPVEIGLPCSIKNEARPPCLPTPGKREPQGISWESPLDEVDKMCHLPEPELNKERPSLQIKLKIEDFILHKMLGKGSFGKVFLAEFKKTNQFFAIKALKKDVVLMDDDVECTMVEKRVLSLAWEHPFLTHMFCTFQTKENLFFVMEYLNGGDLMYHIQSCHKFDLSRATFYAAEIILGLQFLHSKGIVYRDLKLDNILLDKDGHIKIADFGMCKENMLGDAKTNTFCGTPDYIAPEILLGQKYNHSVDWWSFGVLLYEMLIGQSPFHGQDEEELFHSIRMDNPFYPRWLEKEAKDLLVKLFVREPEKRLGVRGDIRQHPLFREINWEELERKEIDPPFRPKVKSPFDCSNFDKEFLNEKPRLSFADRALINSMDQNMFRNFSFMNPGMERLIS

Q: Which IC50 [1] does the source give for `O=C(Nc1cccc(-c2ccnc3cc(-c4cccnc4)nn23)c1)c1cccc(C(F)(F)F)c1` here?
A: > 10 µM

Q: With `N#Cc1cnc2sc(-c3ccncc3)cc2c1-c1cccc(NC(=O)c2cccc(C(F)(F)F)c2)c1` as the compound, how does the IC50 [1] read?
A: > 10 µM

Q: For `O=C(Nc1cccc(-c2ncnc3sc(-c4ccncc4)cc23)c1)c1cccc(C(F)(F)F)c1`, which IC50 [2] is on record?
A: > 10 µM

Q: What about the IC50 [3] of the same compound?
A: > 10 µM

Q: And the IC50 [4]?
A: 3.1 µM

Q: And the IC50 (Caco-2)?
A: 1.1 µM

Q: And the IC50 (A-375)?
A: 0.23 µM

Q: And the IC50 [5]?
A: > 10 µM

Q: What about the IC50 [6] of the same compound?
A: > 10 µM

Q: And the IC50 [7]?
A: > 10 µM

Q: And the IC50 (HT-29)?
A: 0.15 µM

Q: And the IC50 [8]?
A: > 10 µM

Q: What about the IC50 [9] of the same compound?
A: > 10 µM

Q: And the IC50 (LoVo)?
A: 0.3 µM

Q: What about the IC50 [10] of the same compound?
A: > 10 µM

Q: And the IC50 [11]?
A: > 10 µM

Q: And the IC50 [12]?
A: > 10 µM

Q: With `N#Cc1cnc2cc(-c3cccnc3)sc2c1-c1cccc(NC(=O)c2cccc(C(F)(F)F)c2)c1` as the compound, how does the IC50 [1] read?
A: > 10 µM

Q: With `O=C(Nc1cccc(-c2ncnc3cc(-c4cccnc4)sc23)c1)c1cccc(C(F)(F)F)c1` as the compound, how does the IC50 [1] read?
A: > 10 µM

Q: For `N#Cc1cnc2sc(-c3cccnc3)cc2c1-c1cccc(NC(=O)c2cccc(C(F)(F)F)c2)c1`, which IC50 [1] is on record?
A: > 10 µM
